ChEMBL document CHEMBL1201862, “PubChem BioAssay data set” (2004)
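96-well plates; 48 h exposure; 5 concentrations. Endpoints by linear interpolation between flanking doses. Not reached: highest tested concentration assigned. GI50 = concentration required for 50% inhibition of growth.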 The source made the active and inactive calls. Cut-off read from the data, not from the text of the source: active = GI50 up to about 1.1 µM and inactive = higher.

Legend:
Assay in all cases: DTP human tumour cell line panel, 48 h
[1] = test system: MDA-N
[2] = test system: UO-31
[3] = test system: MCF7
[4] = test system: MOLT-4
[5] = test system: RXF 631
[6] = test system: OVCAR-5
[7] = test system: NCI/ADR-RES
[8] = test system: DU-145
[9] = test system: NCI-H226
[10] = test system: CAKI-1
[11] = test system: HL-60
[12] = test system: HCT-15
[13] = test system: LXFL 529
[14] = test system: SK-MEL-2
[15] = test system: SR
[16] = test system: SNB-78
[17] = test system: PC-3
[18] = test system: NCI-H522
[19] = test system: COLO 205
[20] = test system: RXF 393
[21] = test system: SK-MEL-28
[22] = test system: Hs-578T
[23] = test system: T47D
[24] = test system: OVCAR-4
[25] = test system: SK-OV-3
[26] = test system: UACC-62
[27] = test system: SNB-19
[28] = test system: 786-0
[29] = test system: ACHN
[30] = test system: SF-539
[31] = test system: DMS-273
[32] = test system: SW-620
[33] = test system: M14
[34] = test system: M19-MEL
[35] = test system: DMS-114
[36] = test system: IGROV-1
[37] = test system: LOX IMVI
[38] = test system: DLD-1
[39] = test system: OVCAR-8
[40] = test system: SN12C
[41] = test system: A498
[42] = test system: XF498
[43] = test system: NCI-H460
[44] = test system: K562
[45] = test system: HOP-62
[46] = test system: HCT-116
[47] = test system: NCI-H23
[48] = test system: UACC-257
[49] = test system: CCRF-CEM
[50] = test system: SK-MEL-5
[51] = test system: HT-29
[52] = test system: EKVX
[53] = test system: HOP-92
[54] = test system: MDA-MB-435
[55] = test system: SF-295
[56] = test system: KM12
[57] = test system: U-251
[58] = test system: BT-549
[59] = test system: SF-268
[60] = test system: SNB-75
[61] = test system: MDA-MB-231
[62] = test system: Malme-3M
[63] = test system: HCC 2998
[64] = test system: OVCAR-3
[65] = test system: KM-20L2
[66] = test system: A549
[67] = test system: RPMI-8226
[68] = test system: TK-10
[69] = test system: HOP-18

Measured: GI50

COC1=C(N=[N+]=[N-])C(=O)c2ncccc2C1=O
inactive: [1] 1.95 µM | [2] 14.4 µM | [3] 1.82 µM | [5] 16.3 µM | [6] 19.5 µM | [7] 10 µM | [8] 20.8 µM | [9] 19.2 µM | [10] 5.58 µM | [13] 1.72 µM | [14] 18.6 µM | [15] 2.36 µM | [16] 5.7 µM | [17] 15.5 µM | [18] 1.9 µM | [19] 3.04 µM | [20] 3.75 µM | [21] 14.3 µM | [22] 18.5 µM | [23] 2.13 µM | [24] 2.69 µM | [25] 15.2 µM | [26] 7.82 µM | [27] 17.1 µM | [28] 8.79 µM | [29] 4.28 µM | [30] 16 µM | [31] 12.9 µM | [32] 1.95 µM | [33] 3.73 µM | [34] 1.91 µM | [35] 6.85 µM | [36] 5.38 µM | [37] 3.3 µM | [38] 1.65 µM | [39] 3.47 µM | [40] 15.5 µM | [41] 17.1 µM | [42] 4.74 µM | [43] 15.7 µM | [44] 2.84 µM | [45] 15.8 µM | [46] 2.65 µM | [47] 5.36 µM | [48] 4.34 µM | [50] 10.1 µM | [51] 18.4 µM | [52] 8.61 µM | [53] 1.29 µM | [54] 2.12 µM | [55] 15.6 µM | [56] 15.6 µM | [57] 14.6 µM | [58] 10.8 µM | [59] 14.5 µM | [60] 13.1 µM | [61] 12.4 µM | [62] 2.33 µM | [63] 17.1 µM | [64] 5.57 µM | [65] 18.5 µM | [66] 16.6 µM | [67] 1.88 µM | [68] 10.9 µM
active: [4] 0.887 µM | [11] 0.962 µM | [49] 0.401 µM
7.83 µM: [12]

COC(=O)C(CC(=O)Nc1ccc(Cl)c(Cl)c1)C(=O)C(=O)Nc1ccc(Cl)c(Cl)c1 (stereo not given)
> 100 µM: [12]
inactive: [2] > 100 µM | [4] 94.6 µM | [5] > 100 µM | [6] > 100 µM | [9] > 100 µM | [10] > 100 µM | [11] > 100 µM | [13] > 100 µM | [14] > 100 µM | [15] 33.3 µM | [16] > 100 µM | [18] > 100 µM | [19] > 100 µM | [20] > 100 µM | [21] > 100 µM | [24] > 100 µM | [25] > 100 µM | [26] > 100 µM | [27] > 100 µM | [28] > 100 µM | [29] > 100 µM | [30] > 100 µM | [31] > 100 µM | [32] > 100 µM | [33] > 100 µM | [34] > 100 µM | [35] > 100 µM | [36] > 100 µM | [37] > 100 µM | [39] > 100 µM | [40] > 100 µM | [41] > 100 µM | [43] > 100 µM | [69] 50.7 µM | [44] > 100 µM | [45] > 100 µM | [46] > 100 µM | [47] > 100 µM | [48] > 100 µM | [49] > 100 µM | [50] > 100 µM | [51] > 100 µM | [52] > 100 µM | [53] > 100 µM | [55] > 100 µM | [56] > 100 µM | [57] > 100 µM | [59] > 100 µM | [60] > 100 µM | [62] > 100 µM | [63] > 100 µM | [64] > 100 µM | [65] > 100 µM | [66] > 100 µM | [67] > 100 µM | [68] > 100 µM
